{"source": "ChEMBL document CHEMBL1155665", "about": "“Euplectin and coneuplectin, new naphthopyrones from the lichen Flavoparmelia euplecta” (J Nat Prod, 2000)", "tested_on": "P815", "experiment": "Antiproliferative activity against mouse P815 cells assessed as incorporation of [3H]thymidine after 18 hrs by liquid scintillation counting", "format": "functional, cell-based", "data": [{"smiles": "Cc1cc(=O)c2c(O)cc3cc4c(c(O)c3c2o1)C(=O)C=C4", "note": "[EUPLECTIN]", "values": [{"measurement": "IC50", "value": 1.67, "unit": "µg/mL"}]}]}
